Here are results for 10 molecules from patent publication US20210395239A1 (Hoffmann-La Roche Inc., priority 2018, published 2021).

This test concerns the target T1, human TLR7 (Homo sapiens, UniProt Q9NYK1).
T1 construct: host or cells: HEK293 (HEK-Blue hTLR7)
T1 sequence (Q9NYK1 27-1049): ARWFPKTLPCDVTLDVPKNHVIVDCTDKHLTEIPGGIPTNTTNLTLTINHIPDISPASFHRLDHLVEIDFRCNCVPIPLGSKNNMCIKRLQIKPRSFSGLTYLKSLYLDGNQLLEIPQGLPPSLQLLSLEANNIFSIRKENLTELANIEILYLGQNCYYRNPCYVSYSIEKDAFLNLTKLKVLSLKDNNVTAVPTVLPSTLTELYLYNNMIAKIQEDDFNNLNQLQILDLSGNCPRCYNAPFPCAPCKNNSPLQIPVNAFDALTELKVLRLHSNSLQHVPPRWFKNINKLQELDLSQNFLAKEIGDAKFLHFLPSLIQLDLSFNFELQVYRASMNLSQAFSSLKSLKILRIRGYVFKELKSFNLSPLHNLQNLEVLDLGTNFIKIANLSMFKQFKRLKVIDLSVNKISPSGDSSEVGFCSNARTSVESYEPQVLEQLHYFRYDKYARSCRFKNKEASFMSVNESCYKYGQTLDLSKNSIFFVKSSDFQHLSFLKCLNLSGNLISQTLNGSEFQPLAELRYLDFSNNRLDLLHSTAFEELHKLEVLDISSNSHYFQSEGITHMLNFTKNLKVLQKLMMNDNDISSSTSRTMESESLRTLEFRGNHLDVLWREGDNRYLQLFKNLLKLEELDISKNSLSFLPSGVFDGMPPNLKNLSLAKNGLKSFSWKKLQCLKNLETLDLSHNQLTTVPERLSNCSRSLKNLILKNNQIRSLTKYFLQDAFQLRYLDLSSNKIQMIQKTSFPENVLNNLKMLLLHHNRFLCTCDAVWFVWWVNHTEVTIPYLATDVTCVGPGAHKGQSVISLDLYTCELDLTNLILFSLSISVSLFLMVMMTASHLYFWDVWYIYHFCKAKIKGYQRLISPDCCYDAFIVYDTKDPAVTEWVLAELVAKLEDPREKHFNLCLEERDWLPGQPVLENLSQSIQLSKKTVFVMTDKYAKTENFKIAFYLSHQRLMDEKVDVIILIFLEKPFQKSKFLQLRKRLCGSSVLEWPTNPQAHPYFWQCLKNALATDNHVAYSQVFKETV
In words: HEK293-Blue-hTLR-7 cells assay (SEAP reporter, R848 stimulation). In kind it is cell-based. The conditions noted are these: HEK293-Blue-hTLR7 cells, R848, 20 hrs; read-out: HEK/hTLR7 IC50. In a few lines:
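HEK293-Blue-hTLR7 cells (NF-κB/AP-1-driven SEAP reporter) were stimulated with R848 alongside serially diluted compound at 1% final DMSO for 20 h at 37 °C. Supernatant SEAP was then developed with QUANTI-Blue for 2 h at 37 °C and absorbance read at 620–655 nm; antagonism is measured as reduced reporter signal.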
In the case of `CO[C@H]1CN(c2nc(C)cc(N3CCN(C[C@H]4CN(c5ccc(C#N)c6ncccc56)C[C@@H](C)O4)CC3)n2)CC1N` (relative stereo) [Example 59, 5-[(2R,6S)-2-methyl-6-[[4-[6-methyl-2-[trans-3-amino-4-methoxy-pyrrolidin-1-yl]pyrimidin-4-yl]piperazin-1-yl]methyl]morpholin-4-yl]quinoline-8-carbonitrile], the IC50 worked out at 11 nM.
Next, `Cc1cc(N2CCN(C[C@H]3CN(c4ccc(C#N)c5ncccc45)C[C@@H](C)O3)CC2)nc(N2CC(N)C(F)C2)n1` (stereo in doubt) [Example 54, 5-[(2S,6R)-2-[[4-[2-[(3S,4R)-3-amino-4-fluoro-pyrrolidin-1-yl]-6-methyl-pyrimidin-4-yl]piperazin-1-yl]methyl]-6-methyl-morpholin-4-yl]quinoline-8-carbonitrile]: 9 nM; `COC1CN(c2ccc(C3CN(C[C@H]4CN(c5cc(=O)n(C)c6ncccc56)C[C@@H](C)O4)C3)cc2)C[C@H]1N` (stereo in doubt) [Example 172, 4-[(2S,6R)-2-[[3-[4-[(3R,4R)-3-amino-4-methoxy-pyrrolidin-1-yl]phenyl]azetidin-1-yl]methyl]-6-methyl-morpholin-4-yl]-1-methyl-1,8-naphthyridin-2-one]: 41 nM.
Next, `C[C@@H]1CN(c2cc(=O)n(C)c3ncccc23)C[C@H](CN2CC(c3ccc(N4CC(F)[C@H](N)C4)cc3)C2)O1` (stereo in doubt) [Example 174, 4-[(2S,6R)-2-[[3-[4-[(3R,4R)-3-amino-4-fluoro-pyrrolidin-1-yl]phenyl]azetidin-1-yl]methyl]-6-methyl-morpholin-4-yl]-1-methyl-1,8-naphthyridin-2-one]: 47 nM.
Next, `C[C@@H]1CN(c2ccc(C#N)n3ncc(F)c23)C[C@H](CN2CCN(c3ccc(C4CNCCO4)cc3F)CC2)O1` (stereo in doubt) [Example 183, 3-fluoro-4-[(2S,6R)-2-[[4-[2-fluoro-4-[(2S)-morpholin-2-yl]phenyl]piperazin-1-yl]methyl]-6-methyl-morpholin-4-yl]pyrazolo[1,5-a]pyridine-7-carbonitrile]: 28 nM.
Turning to `C[C@@H]1CN(c2ccc(C#N)c3ncccc23)C[C@H](CN2CCN(c3cccc(N4CCNCC4)n3)CC2)O1` [Example 10, 5-[(2R,6S)-2-methyl-6-[[4-(6-piperazin-1-yl-2-pyridyl)piperazin-1-yl]methyl]morpholin-4-yl]quinoline-8-carbonitrile], the IC50 is 33 nM.
Next, `C[C@@H]1CN(c2ccc(C#N)c3ncccc23)C[C@H](CN2CCN(c3cnc(N4CCNCC4)nc3)CC2)O1` [Example 12, 5-[(2R,6S)-2-methyl-6-[[4-(2-piperazin-1-ylpyrimidin-5-yl)piperazin-1-yl]methyl]morpholin-4-yl]quinoline-8-carbonitrile]: 12 nM; `C[C@@H]1CN(c2ccc(C#N)c3ncccc23)C[C@H](CN2CCN(c3ccc(N4CCNCC4)nc3)CC2)O1` [Example 13, 5-[(2R,6S)-2-methyl-6-[[4-(6-piperazin-1-yl-3-pyridyl)piperazin-1-yl]methyl]morpholin-4-yl]quinoline-8-carbonitrile]: 18 nM.
In the case of `C[C@@H]1CN(c2ccc(C#N)c3ncccc23)C[C@H](CN2CCN(c3ncc(N4CCNCC4)cn3)CC2)O1` [Example 17, 5-[(2R,6S)-2-methyl-6-[[4-(5-piperazin-1-ylpyrimidin-2-yl)piperazin-1-yl]methyl]morpholin-4-yl]quinoline-8-carbonitrile], the IC50 is 31 nM.
Next, `C[C@@H]1CN(c2ccc(C#N)c3ncccc23)C[C@H](CN2CCN(c3cc(N4CCNCC4)ncn3)CC2)O1` [Example 18, 5-[(2R,6S)-2-methyl-6-[[4-(6-piperazin-1-ylpyrimidin-4-yl)piperazin-1-yl]methyl]morpholin-4-yl]quinoline-8-carbonitrile]: 11 nM.
